Experimental data from patent US11572590B2, “Methods for evaluating tumor cell spheroids using 3D microfluidic cell culture device” (Dana-Farber Cancer Institute, Inc., priority 2017, dated 2023).
Where two headings read alike, the source gives them in different places.

Experiments:
Assay in all cases: SelectScreen Kinase Profiling, single point inhibition and IC50 for off-target kinases
Assay type in all cases: biochemical
off-target kinases [1] = target: off-target kinases (Homo sapiens, UniProt Q13627); settings: DYRK1A, ZLYTE, ATP Km app
off-target kinases [2] = target: T1, off-target kinases (Homo sapiens, UniProt Q04771); settings: ACVR1 (ALK2), LanthaScreen Binding
T1 sequence (Q04771 21-509): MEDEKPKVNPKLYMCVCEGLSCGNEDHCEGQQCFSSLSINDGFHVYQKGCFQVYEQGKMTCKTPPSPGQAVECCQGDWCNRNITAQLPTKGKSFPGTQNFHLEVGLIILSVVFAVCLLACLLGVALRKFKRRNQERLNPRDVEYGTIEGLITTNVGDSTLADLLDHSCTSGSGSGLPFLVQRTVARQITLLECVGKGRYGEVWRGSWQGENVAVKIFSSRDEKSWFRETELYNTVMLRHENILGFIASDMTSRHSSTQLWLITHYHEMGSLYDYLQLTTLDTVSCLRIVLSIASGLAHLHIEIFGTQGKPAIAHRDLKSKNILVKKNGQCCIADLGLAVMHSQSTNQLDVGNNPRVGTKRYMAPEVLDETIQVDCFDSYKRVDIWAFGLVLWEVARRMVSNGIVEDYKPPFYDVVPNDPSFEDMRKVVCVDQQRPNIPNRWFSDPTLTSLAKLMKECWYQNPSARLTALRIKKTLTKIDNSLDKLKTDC

off-target kinases [3] = target: off-target kinases (Homo sapiens, UniProt Q16816); settings: PHKG1, ZLYTE, ATP Km app
Chain of off-target kinases (Homo sapiens, UniProt Q16816) (Q16816 whole entry): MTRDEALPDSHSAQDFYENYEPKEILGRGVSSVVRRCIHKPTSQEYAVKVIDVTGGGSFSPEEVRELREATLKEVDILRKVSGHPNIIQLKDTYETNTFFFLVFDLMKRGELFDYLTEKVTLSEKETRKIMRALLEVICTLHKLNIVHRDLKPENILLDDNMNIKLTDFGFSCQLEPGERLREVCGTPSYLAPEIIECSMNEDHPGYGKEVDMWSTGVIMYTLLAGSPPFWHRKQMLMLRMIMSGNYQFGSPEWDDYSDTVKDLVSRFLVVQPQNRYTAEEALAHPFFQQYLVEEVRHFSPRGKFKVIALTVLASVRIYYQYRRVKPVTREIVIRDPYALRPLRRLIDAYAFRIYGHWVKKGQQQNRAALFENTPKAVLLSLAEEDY

off-target kinases [4] = target: off-target kinases (Homo sapiens, UniProt Q13555); settings: CAMK2G (CaMKII gamma), LanthaScreen Binding
Chain of off-target kinases (Homo sapiens, UniProt Q13555) (Q13555 whole entry): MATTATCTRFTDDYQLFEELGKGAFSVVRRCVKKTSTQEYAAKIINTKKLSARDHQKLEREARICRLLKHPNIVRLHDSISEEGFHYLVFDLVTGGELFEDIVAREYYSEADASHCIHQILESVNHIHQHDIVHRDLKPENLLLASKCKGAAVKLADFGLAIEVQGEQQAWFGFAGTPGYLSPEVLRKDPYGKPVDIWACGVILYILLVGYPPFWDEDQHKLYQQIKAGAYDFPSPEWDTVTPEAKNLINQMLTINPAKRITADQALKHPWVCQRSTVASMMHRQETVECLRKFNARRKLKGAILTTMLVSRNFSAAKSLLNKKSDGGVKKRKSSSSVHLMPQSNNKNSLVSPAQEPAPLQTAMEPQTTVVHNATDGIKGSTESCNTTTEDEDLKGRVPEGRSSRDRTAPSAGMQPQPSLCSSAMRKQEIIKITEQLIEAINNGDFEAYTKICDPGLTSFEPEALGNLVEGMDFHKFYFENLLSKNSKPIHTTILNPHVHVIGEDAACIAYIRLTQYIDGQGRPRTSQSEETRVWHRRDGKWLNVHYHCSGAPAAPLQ

off-target kinases [5] = target: off-target kinases (Homo sapiens, UniProt Q13177); settings: PAK2 (PAK65), ZLYTE, ATP Km app
Chain of off-target kinases (Homo sapiens, UniProt Q13177) (Q13177 whole entry): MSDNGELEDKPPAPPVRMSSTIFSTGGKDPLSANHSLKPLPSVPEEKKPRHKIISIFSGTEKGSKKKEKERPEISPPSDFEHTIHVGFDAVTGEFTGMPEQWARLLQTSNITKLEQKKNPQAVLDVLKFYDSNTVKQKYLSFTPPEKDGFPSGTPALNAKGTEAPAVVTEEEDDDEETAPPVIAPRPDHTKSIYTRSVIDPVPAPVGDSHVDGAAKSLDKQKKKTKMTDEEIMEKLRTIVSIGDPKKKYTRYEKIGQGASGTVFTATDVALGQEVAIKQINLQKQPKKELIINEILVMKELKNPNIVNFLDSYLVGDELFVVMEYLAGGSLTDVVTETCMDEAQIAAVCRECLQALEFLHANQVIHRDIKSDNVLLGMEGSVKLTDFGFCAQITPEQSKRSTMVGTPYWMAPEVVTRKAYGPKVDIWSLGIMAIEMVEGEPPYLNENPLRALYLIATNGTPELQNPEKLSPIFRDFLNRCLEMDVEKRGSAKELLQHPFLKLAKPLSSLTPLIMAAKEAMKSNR

off-target kinases [6] = target: off-target kinases (Homo sapiens, UniProt Q9Y572); settings: RIPK3, LanthaScreen Binding
Chain of off-target kinases (Homo sapiens, UniProt Q9Y572) (Q9Y572 whole entry): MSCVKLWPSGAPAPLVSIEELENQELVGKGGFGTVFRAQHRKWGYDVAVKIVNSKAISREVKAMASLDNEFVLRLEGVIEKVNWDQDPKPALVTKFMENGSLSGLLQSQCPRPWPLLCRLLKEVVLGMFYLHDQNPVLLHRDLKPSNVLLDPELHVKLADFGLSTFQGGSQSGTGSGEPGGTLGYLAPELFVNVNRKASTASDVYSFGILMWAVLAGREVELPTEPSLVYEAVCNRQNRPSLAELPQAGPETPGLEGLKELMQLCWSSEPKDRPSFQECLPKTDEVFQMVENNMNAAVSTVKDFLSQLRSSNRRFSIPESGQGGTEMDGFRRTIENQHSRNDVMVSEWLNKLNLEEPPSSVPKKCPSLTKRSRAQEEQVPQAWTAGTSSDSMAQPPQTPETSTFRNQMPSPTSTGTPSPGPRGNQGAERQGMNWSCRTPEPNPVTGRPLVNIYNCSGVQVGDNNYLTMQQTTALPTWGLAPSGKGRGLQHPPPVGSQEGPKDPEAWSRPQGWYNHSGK

off-target kinases [7] = target: T2, off-target kinases (Homo sapiens, UniProt Q08881); settings: ITK, ZLYTE, ATP Km app
T2 sequence (Q08881 1-620): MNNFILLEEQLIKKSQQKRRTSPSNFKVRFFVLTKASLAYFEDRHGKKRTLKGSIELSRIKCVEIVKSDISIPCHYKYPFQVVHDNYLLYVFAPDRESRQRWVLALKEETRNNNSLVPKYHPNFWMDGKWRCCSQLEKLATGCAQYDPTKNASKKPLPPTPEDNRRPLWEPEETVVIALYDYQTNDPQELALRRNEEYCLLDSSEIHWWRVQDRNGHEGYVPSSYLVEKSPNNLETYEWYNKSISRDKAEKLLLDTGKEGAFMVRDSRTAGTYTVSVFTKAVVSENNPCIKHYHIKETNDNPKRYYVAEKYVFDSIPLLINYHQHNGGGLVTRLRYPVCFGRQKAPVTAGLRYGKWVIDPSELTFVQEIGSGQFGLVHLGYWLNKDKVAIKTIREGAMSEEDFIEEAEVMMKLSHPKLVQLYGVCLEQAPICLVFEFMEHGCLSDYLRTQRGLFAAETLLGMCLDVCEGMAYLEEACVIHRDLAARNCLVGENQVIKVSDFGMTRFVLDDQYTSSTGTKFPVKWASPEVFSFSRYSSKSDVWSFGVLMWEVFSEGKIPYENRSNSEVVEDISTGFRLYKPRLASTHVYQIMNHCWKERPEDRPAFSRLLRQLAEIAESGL

`N#Cc1cc(-c2ncnc(Nc3ccc(N4CCN(C5COC5)CC4)cc3)n2)ccc1OC1CCOCC1` [Compound 1, 5-(4-((4-(4-(oxetan-3-yl)piperazin-1-yl)phenyl)amino)-1,3,5-triazin-2-yl)-2-((tetrahydro-2H-pyran-4-yl)oxy)benzonitrile] showed an inhibition (off-target kinases [1]; read-out: % Inhibition 1) of 30%, an inhibition (off-target kinases [1]; read-out: % Inhibition 2) of 27% and an inhibition (off-target kinases [1]; read-out: % Inhibition Avg) of 28%. For the same compound, the inhibition (off-target kinases [2]; read-out: % Inhibition 1) was 85%, the inhibition (off-target kinases [2]; read-out: % Inhibition 2) was 84% and the inhibition (off-target kinases [2]; read-out: % Inhibition Avg) was 84%. For the same compound, the inhibition (off-target kinases [3]; read-out: % Inhibition 1) was 39%, the inhibition (off-target kinases [3]; read-out: % Inhibition 2) was 37% and the inhibition (off-target kinases [3]; read-out: % Inhibition Avg) was 38%. For the same compound, the inhibition (off-target kinases [4]; read-out: % Inhibition 1) was 18%, the inhibition (off-target kinases [4]; read-out: % Inhibition 2) was 19% and the inhibition (off-target kinases [4]; read-out: % Inhibition Avg) was 18%. The inhibition (off-target kinases [5]; read-out: % Inhibition 1) was 6%, the inhibition (off-target kinases [5]; read-out: % Inhibition 2) was -1% and the inhibition (off-target kinases [5]; read-out: % Inhibition Avg) was 3%. It also gave an inhibition (off-target kinases [6]; read-out: % Inhibition 1) of -1%, an inhibition (off-target kinases [6]; read-out: % Inhibition 2) of 1% and an inhibition (off-target kinases [6]; read-out: % Inhibition Avg) of 0%. For the same compound, the inhibition (off-target kinases [7]; read-out: % Inhibition 1) was 37%, the inhibition (off-target kinases [7]; read-out: % Inhibition 2) was 32% and the inhibition (off-target kinases [7]; read-out: % Inhibition Avg) was 34%.
